Source: article PMC12261233, “Photoactivatable Cyclometalated Ir(III) Compound Penetrates the Blood-Brain Barrier in 3D Spheroidal and Advanced 3D Organoid Models of Inherently Resistant and Aggressive Brain Tumors” (ACS Pharmacology & Translational Science, 2025)
Where two headings read alike, the source gives them in different places.

Columns and labels:
Type in all cases: cell-based, human
U87MG spheroids [1] = assay: Distribution of iridium compounds in Matrigel-embedded spheroids (confocal); conditions: 5 μM, 3 h
Experimental: Spheroids derived from U87MG cells were encapsulated in a Matrigel matrix. The U87MG cells were incubated for 72 h under 3D conditions using ULA 96-well U-shaped plates (Corning) and cultured in DMEM-F12 ham medium supplemented with growth factors conducive to spheroid formation: 2% B27 (Thermo Fisher Scientific Inc., MA, USA), epidermal growth factor (EGF; Sigma-Aldrich, Germany, 20 ng mL^–1), fibroblast growth factor (FGF2; Sigma-Aldrich, Germany, 10 ng mL^–1), and BSA (0.15%). Following the 72-h spheroid formation phase, the samples were embedded in a Matrigel matrix and allowed to gel completely (30 min). Afterward, the spheroids were further cultured for 24 h in confocal Petri dishes (Mattek) with 3D forming medium. Subsequently, the samples were exposed to 5 μM of the tested compounds 3, 4, and 5 for 3 h. The samples were then rinsed, transferred to a fresh 3D forming medium, and visualized using a confocal microscope (Leica CM SP8 SMD, Leica, Germany). Imaging was conducted in defined Z-stacks with a 20 μm step, and fluorescence intensities were captured and analyzed using ImageJ software.

U87MG spheroids [2] = assay: Calcein AM/PPI staining of Matrigel-embedded spheroids after single-spheroid 405 nm irradiation (confocal); conditions: for change in calcein AM/PPI ratio with blue light irradiation: 405 nm irradiated; for change in calcein AM/PPI ratio under dark conditions: versus control
Experimental: Spheroids were treated with iridium complexes at IC50 concentrations (Table S4) for 3 h, followed by 405 nm laser irradiation for 60 s. After 24 h in a drug-free medium, spheroids were stained for analysis. Significant differences in live and dead cell counts were observed between irradiated and nonirradiated samples for Ir3 and Ir4, with morphological disruptions noted in treated spheroids, including reduced diameters and metabolically active cells concentrated in the core (Figure , panel III, inserts 2* and 4*).
Matrigel-embedded spheroids were treated for 3 h with the investigated compounds at concentrations corresponding to the IC50 determined for 3D cultures. Then, the samples were irradiated for 60 s with 405 nm laser light (1 mW) and placed in a drug-free, 3D forming medium for an additional 21 h. Then, treated and irradiated (or dark incubated controls) were stained with Hoechst 33258 (20 μg mL^–1), Calcein AM (2 μM), and PPI (8 μg mL^–1) for 2 h. Samples were sequentially imaged on a confocal microscope Leica CM SP5 (Leica, Germany), in 10 z-stack scans (20 μm each). Images were processed using ImageJ software. Fluorescence intensities were assessed for the maximal projections of the z-stacks, and the corresponding Calcein AM/PPI ratio was calculated. Hoechst dye was used to accurately define the Region of Interest (ROI) mask and analyze fluorescence intensities. Three independent experiments were carried out to ensure the reliability and reproducibility of the results. The representative images are shown.

U87MG spheroids [3] = assay: Antiproliferative activity, 3D spheroids, CellTiter-Glo 3D assay; conditions: for PI (phototoxicity index) 3D: IC50 dark / IC50 420 nm irradiated; for IC50: U87MG 3D spheroids, 90 min treatment, CellTiter-Glo 3D; for TMI (3D/2D): ratio of IC50 for 3D and 2D models under irradiation
Experimental: The antiproliferative activity of the compounds under investigation was assessed using the Sulforhodamine B (SRB) assay on both 2D cell monolayers and 3D spheroids. For the 2D cell monolayer assay, cells were seeded in 96-well tissue culture plates at a density of 3 × 10^3 cells/well in 100 μL of culture medium. Following overnight incubation in a humidified CO2 incubator, the medium was replaced, and the cells were treated with the investigated compounds in a final volume of 200 μL/well of Earle’s Balanced Salt Solution (EBSS). The cells were then exposed to the tested compounds for 1.5 h under dark conditions (5% CO2, 37 °C) and subsequently irradiated with blue light (420 nm) for 30 min at an intensity of 58 W/m^2. After treatment, the samples were washed with Phosphate-Buffered Saline (PBS) and replenished with 200 μL of culture medium. Following an additional 70-h incubation, the cells were washed with PBS, fixed with trichloroacetic acid at 4 °C for 1 h, and stained with 0.4% SRB dye for 30 min. The stained cells were dissolved with Tris (10 mM), and the cell viability was assessed by measuring the absorbance at 570 nm using an Absorbance Reader (SPARK TECAN, SCHOELLER). The absorbance readings were then converted to the percentage of control (% cell survival), and the antiproliferative effects were expressed as IC50 values, which were calculated from curves plotting cell survival (%) versus drug concentration (μM) (IC50 = the concentration of the agent that inhibits cell growth by 50%). For experiments with 3D spheroids, 2500 single cells/well were seeded on ultralow attachment U-shape 96-well plates (Corning, USA) and cultured for 72 h in 3D forming medium DMEM-F12 ham medium supplemented with growth and spheroid forming factors: 2% B27 (Thermo Fisher Scientific Inc., MA, USA), epidermal growth factor (EGF; Sigma-Aldrich, Germany, 20 ng mL^–1), fibroblast growth factor (FGF2; Sigma-Aldrich, Germany, 10 ng mL^–1), and BSA (0.15%). After the 72-h spheroid formation period, the samples were treated and irradiated as described for the 2D cultures. Subsequently, the samples were cultured in the 3D forming medium for an additional 70 h, and the antiproliferative potency of the tested compounds against spheroids was determined by assessing changes in IC50 values using the CellTiterGlo-3D assay (Promega). The luminescence signal was detected using the plate reader SPARK (Tecan, Manedorf, Switzerland), and the IC50 values were calculated from the survival curves. All experiments were conducted in triplicate to ensure the reliability and reproducibility of the results. Furthermore, the concentrations of the compounds in the medium during the treatment were verified using Flame Atomic Absorption Spectroscopy (FAAS) or Inductively Coupled Plasma Mass Spectrometry (ICP-MS).
The antiproliferative activity (IC50 valuesa) of the investigated compounds determined in 2D and 3D models of U87MG cellsb
Dark Irradiated PId Dark Irradiated PIe (3D/2D) […]
a Concentration that causes 50% inhibition of cell proliferation. b Cell monolayer or generated 3D spheroids were treated for 90 min with increasing concentrations of the investigated compounds, followed by 30 min of irradiation with blue light (420 nm; 58 Wm-2) and 70 h of drug-free incubation. c IC50 values were determined by SRB assay. d IC50 values were determined by CellTiter-Glo® 3D chemiluminescent assay. e PI - phototoxicity index was calculated as the ratio of IC50 determined under the dark conditions / IC50 determined for 420 […]
f TMI – tissue-mass index was calculated as the ratio of IC50 values determined for 3D and 2D models under irradiation conditions.

[4] = dark, 70 h drug-free, read-out: IC50 3D Dark
[5] = 30 min blue light 420 nm 58 W m-2, 70 h drug-free, read-out: IC50 3D Irradiated

SMILES | distribution within spheroid (U87MG spheroids [1]) | change in calcein AM/PPI ratio with blue light irradiation (U87MG spheroids [2]) | change in calcein AM/PPI ratio under dark conditions (U87MG spheroids [2]) | PI (phototoxicity index) 3D (U87MG spheroids [3]) | IC50 (U87MG spheroids [3]; [4]) [µM] | IC50 (U87MG spheroids [3]; [5]) [µM] | TMI (3D/2D) (U87MG spheroids [3]) | IC50 (U87MG spheroids [3]; Homo sapiens, U-87 MG, light or radiation study, 30 min blue light 420 nm 58 W m-2, 70 h drug-free, read-out: IC50 3D Irradiated) [µM] | IC50 (U87MG spheroids [3]; Homo sapiens, U-87 MG, dark, 70 h drug-free, read-out: IC50 3D Dark) [µM]
Cc1ccc(-c2cc3[n+]4c(c2)-c2cccc[n+]2[Ir-3]42([Cl])([c]4c(ccc5c4OCO5)-c4n(Cc5ccc(C(F)(F)F)cc5)c5ccccc5[n+]42)[n+]2ccccc2-3)cc1.F[P-](F)(F)(F)(F)F [Ir5] | primarily localized in the outer regions of the spheroids | substantial decrease | insignificant changes | 4.5 | 32.3 ± 3.3 | 7.1 ± 0.8 | 16.9 | – | –
Cn1nnc2c(C(N)=O)ncn2c1=O [Temozolomide, reference compound] | – | – | – | – | – | – | – | 95.3 ± 6.4 | ≥ 100
CCCCn1c2[n+](c3cc(C(=O)OC)ccc31)[Ir-3]13([Cl])([c]4ccccc4-2)[n+]2ccccc2-c2cc(-c4ccc(C)cc4)cc([n+]21)-c1cccc[n+]13.F[P-](F)(F)(F)(F)F [Ir4] | most uniform distribution | substantial decrease | significant decrease | 13.1 | 27.6 ± 4 | 2.1 ± 0.2 | 4 | – | –
Cc1ccc(-c2cc3[n+]4c(c2)-c2cccc[n+]2[Ir-3]42([Cl])([c]4cc5ccccc5cc4-c4n(Cc5ccc(C(F)(F)F)cc5)c5ccccc5[n+]42)[n+]2ccccc2-3)cc1.F[P-](F)(F)(F)(F)F [Ir3] | primarily localized in the outer regions of the spheroids | substantial decrease | insignificant changes | 6.1 | 36.6 ± 4.5 | 6 ± 1 | 9.0 | – | –
